# Measured values taken from PubChem BioAssay (NCI).
# Several values for one entry are separate records, joined by “and”; a condition that tells them apart may be missing. Identical values can stand only once.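 In this assay, cells in 96-well plates receive the compound at five concentrations for 48 hours. Endpoints are linearly interpolated between the surrounding concentrations. GI50: concentration for 50% inhibition of growth. Definition used: TGI = concentration required for complete inhibition of growth.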 Where a SMILES comes first, the peptide text is derived from it. The star is where a group is joined. Boc = CC(C)(C)OC(=O)*
# Key:
# Experiment in all cases: NCI tumour cell line growth inhibition, 48 h
# [1] = test system: SNB-78 CNS
# [2] = test system: M19-MEL melanoma
# [3] = test system: MDA-N
# [4] = test system: DMS 114 small cell lung
# [5] = test system: RXF-631 renal
# [6] = test system: XF 498 CNS
# [7] = test system: HOP-18 NSCLC
# [8] = test system: P388/ADR leukemia
# [9] = test system: P388 leukemia
# [10] = test system: SN12K1 renal
compound,measurement,setting,value
COC(=O)c1s/c(=N\C(=S)N(C)C)n(-c2ccc(Cl)cc2)c1C(=O)OC,TGI,[1],> 100 µM
same,TGI,[2],> 100 µM
CN(C)c1ncnc2c1ncn2CCn1cnc2c(N(C)C)ncnc21,TGI,[3],> 100 µM
CCc1c(Cl)c(C)cc(O)c1Cl,TGI,[3],41.3 µM
S=c1[nH]c2c(Cl)c(Cl)c(Cl)c(Cl)c2[nH]1,TGI,[3],51.4 µM
CC(C)=CCc1cc2c(cc1O)OC[C@H]1c3cc4c(cc3O[C@@H]21)OCO4,TGI,[3],> 100 µM
Oc1ccc2ccccc2c1N=Nc1ccc(Br)cc1,TGI,[3],> 100 µM
Cc1cc2cc3c(=O)[nH]c(=O)[nH]c3nc2cc1C,TGI,[3],> 100 µM
C[Si](C)(C)/C(Br)=C\CCN1C(=O)CCC1=O,TGI,[1],> 100 µM
same,TGI,[4],> 100 µM
same,TGI,[5],> 100 µM
same,TGI,[2],> 100 µM
same,TGI,[6],> 100 µM
same,TGI,[7],> 100 µM
O=C(O)c1ccc(C(=O)O)c2c(C(=O)O)ccc(C(=O)O)c12,TGI,[3],> 100 µM
CC(=O)N1CCC(=O)/C(=C/c2ccccc2)C1,TGI,[1],> 100 µM
same,TGI,[4],30.8 µM
same,TGI,[5],> 100 µM
same,TGI,[2],58.3 µM
same,TGI,[6],> 100 µM
same,TGI,[7],51.2 µM
O=C(CNS(=O)(=O)Cc1ccccc1)NNc1ccccc1,TGI,[3],> 100 µM
C=CCN1CCC23c4c5ccc(O)c4OC2C(=NN=C2CCC4(O)C6Cc7ccc(O)c8c7C4(CCN6CC=C)C2O8)CCC3(O)C1C5 (stereo not given),TGI,[1],68 µM
same,TGI,[4],60.8 µM
same,TGI,[5],50.2 µM
same,TGI,[6],32.9 µM
same,TGI,[7],> 100 µM
CSc1nc(NC2OC(COC(C)=O)C(OC(C)=O)C(OC(C)=O)C2OC(C)=O)c(N=CC=Nc2c(NC3OC(COC(C)=O)C(OC(C)=O)C(OC(C)=O)C3OC(C)=O)nc(SC)n(C)c2=O)c(=O)n1C (stereo not given),TGI,[1],> 93.7 µM
same,TGI,[4],> 100 µM
same,TGI,[5],> 100 µM
same,TGI,[2],> 100 µM
same,TGI,[6],30.3 µM
same,TGI,[3],> 100 µM
same,TGI,[7],> 100 µM
[N-]=[N+]=N/C1=C/CCCCC(=O)C1,TGI,[1],> 100 µM
same,TGI,[4],> 100 µM
same,TGI,[2],> 100 µM
same,TGI,[6],> 100 µM
C[C@]12CCC(=O)C=C1CC[C@@H]1C2CC[C@]2(C)Nc3[nH]ncc3CC12 (stereo not given in full),TGI,[1],> 100 µM
same,TGI,[4],> 100 µM
same,TGI,[2],> 100 µM
same,TGI,[6],> 100 µM
COC12OCCN(C)C1=CC(=O)C1=NNC(C)C12 (stereo not given),TGI,[1],> 100 µM
same,TGI,[4],> 100 µM
same,TGI,[5],> 100 µM
same,TGI,[2],> 100 µM
same,TGI,[7],> 100 µM
CCN(CC)CCSc1c2ccccc2nc2c(OC)ccc(OC)c12,TGI,[1],22.3 µM
same,TGI,[4],3.24 µM
same,TGI,[5],17.9 µM
same,TGI,[2],38.2 µM
same,TGI,[6],> 21.1 µM
COC(=O)C1=C(C(=O)OC)C2=S(SC3=C2CCCC3)S1 (stereo not given),TGI,[2],> 100 µM
COC12C(COC(N)=O)C3=C(C(=O)C(C)=C(N)C3=O)N1CC1C2N1C (stereo not given),TGI,[1],51.1 µM
same,TGI,[8],263 µM
same,TGI,[9],75.2 µM
same,TGI,[2],24.7 µM
same,TGI,[6],21 µM
same,TGI,[3],35.3 µM
same,TGI,[7],82.5 µM
same,TGI,[10],19.9 µM
COc1cc2c3c(c1OC)-c1cc4c(cc1CC3(C#N)N(C(=O)c1ccccc1)CC2)OCO4 (stereo not given),TGI,[1],42.6 µM
same,TGI,[4],> 85.1 µM
same,TGI,[2],> 100 µM
same,TGI,[6],24.8 µM
same,TGI,[3],> 100 µM
same,TGI,[7],93.2 µM
COC(=O)C(C)NC(=O)C(CCSC)NC(=O)C(Cc1ccccc1)NC(=O)OC(C)(C)C (stereo not drawn) (Boc-Phe-Met-Ala-OMe; configuration not given here),GI50,[3],48.9 µg/mL
same,TGI,[3],> 100 µM
CS/C(=C(\S)c1ccccc1)c1ccccc1,TGI,[1],> 100 µM
same,TGI,[4],> 100 µM
same,TGI,[5],> 100 µM
same,TGI,[2],> 100 µM
same,TGI,[6],> 100 µM
same,TGI,[7],> 100 µM
CCOC(=O)c1ccc(N=Nc2cc(C(=O)OCC)ccc2O)cc1,TGI,[4],> 100 µM
same,TGI,[2],> 100 µM
same,TGI,[6],22 µM
same,TGI,[7],> 100 µM
O=C1CCC(=O)c2c1c(O)c1ccncc1c2O,TGI,[1],38.4 µM
same,TGI,[4],25.4 µM
same,TGI,[5],54.8 µM
same,TGI,[6],32.7 µM
same,TGI,[7],60.5 µM
CC1(Br)Cc2ccccc2C1=O (stereo not given),GI50,[3],4.45 µM
same,TGI,[3],18.2 µM
CC(C)(C)[Si](C)(C)OC1C(=O)C[C@H]2CCCC[C@@H]12 (stereo not given in full),TGI,[1],> 100 µM
same,TGI,[4],> 100 µM
same,TGI,[2],> 100 µM
same,TGI,[6],> 100 µM
same,TGI,[7],> 100 µM
O=C(/C=C/C=C/c1ccccc1)c1ccccc1,TGI,[3],30.4 µM
Cc1ccc(S(=O)OCc2c(C)c(C)c(COS(=O)c3ccc(C)cc3)c(C)c2C)cc1 (stereo not given),TGI,[1],> 100 µM
same,TGI,[4],> 100 µM
same,TGI,[2],> 100 µM
same,TGI,[6],> 100 µM
same,TGI,[7],> 100 µM
C=COC(=O)N[C@H]1CCc2cc(OC)c(OC)c(OC)c2-c2ccc(SC)c(=O)cc21,TGI,[1],> 100 µM
same,TGI,[2],> 100 µM
same,TGI,[6],> 62.3 µM
same,TGI,[3],< 0.01 µM
same,TGI,[7],> 100 µM
C/C(=N\NC(=S)N1CCCCCC1)c1ccccn1,GI50,[1],0.355 µM
same,TGI,[1],13.7 µM
same,TGI,[4],0.138 µM and 0.0298 µM
same,TGI,[5],2.83 µM
same,GI50,[2],0.109 µM
same,TGI,[2],1.06 µM and 0.687 µM
same,GI50,[6],0.0141 µM
same,GI50,[3],0.169 µM
same,TGI,[3],1.5 µM
same,GI50,[7],0.72 µM
same,TGI,[7],0.927 µM and 6.14 µM
O=c1[nH]c2ccc(O)cc2o1,TGI,[3],> 100 µM
CC12CCC3c4ccc(O)cc4CCC3C1C/C(=N\O)C2O (stereo not given),TGI,[3],> 100 µM
